Experimental data published in publication PMC8825254, “Rational design of Striga hermonthica-specific seed germination inhibitors” (Plant Physiology, 2021).

Columns and labels:
[1] = tested on: Rice seeds (cv Nipponbare); assay: Rice germination and seedling growth in response to inhibitors; assay type: in vivo, rice (Oryza sativa); conditions: result in words
Experimental: Rice seeds (cv Nipponbare) were surface sterilized in 2.5% NaClO and 0.05% of Tween-20 for 10 min, and rinsed 6 times with sterilized MilliQ water. Seeds were imbibed in sterilized water at 30°C for 24 h in the dark. Next day, ∼3 mL of each inhibitor at different concentrations (3, 6, 12, 25, 50, and 100 μM) was added along with 0.5 Murashige and Skoog (MS) medium into 24-well plate, and one imbibed rice seed was placed in each well. The experiment was performed in six replications (one plant/well, n = 6) for each concentration. Nontreated rice seeds in 0.5-MS solution were included as a control. Seeds were allowed to germinate at 30°C in the dark for 48 h for monitoring seeds germination, and seeds were moved to a growth chamber with white fluorescent light (130–180 μM m^−2 s^−1) and12 h:12 h (Light/Dark (L/D)) period at 28°C. After 1 week, length of rice seedlings was measured and recorded, and pictures of seedlings were taken.

Striga hermonthica = assay: Striga emergence study in infested rice pots under greenhouse conditions; assay type: in vivo, Striga hermonthica on rice cv IAC165; conditions: for Striga emergence, average number: twice per week for 4 weeks, 10 weeks after rice planting, mock 26 per pot; for Change in Striga emergence compared to mock: Figure 10B; for Rice plant height, change: Striga-infested pots, Figure 10C
Experimental: Approximately 6,000 Striga seeds (20 mg) were weighed, mixed with sand/soil mixture (1:2 ratio), and put into a 3-L perforated plastic pot containing 0.5-L clean sand/soil mixture in the bottom. The pots were kept under greenhouse-controlled conditions at 30°C and kept moist with water for Striga preconditioning for 10 d. Formulated KK023-N1 and Triton X-100 were applied (at 100 mL per pot) at 10 and 100 µM concentration. Then three rice seedlings (cv IAC165, 10 d old) were planted in each pot after 24 h of inhibitor application. All the treatments were applied continuously twice per week for 4 weeks. Water with same amount of solvent (Cyclohexanone+Atlas-G) was used as a control. Pots were irrigated with 200 mL of Hoagland’s nutrient solution with low phosphate (4 µM) when needed. The rice plants were allowed to grow under greenhouse conditions for 10 weeks and the emerged Striga plants were counted from each pot. The height of rice plants was also measured to see impact of Striga infestation on host growth.

## COc1ccc(CCCc2cccc3c2CCN3C(=O)n2ccnn2)cc1 [KK023-N1]
[1]; all treatments (3-100 µM), 1 week
  Effect on rice seedling plant height: no effect on plant height was observed
[1]; up to 100 µM
  Effect on rice seed germination: did not detect any effect on seed germination
  Phenotype of treated rice seedlings versus control: did not show any significant phenotypic difference
Striga hermonthica; 10 µM
  Striga emergence, average number: 20 Striga plants per pot
  Change in Striga emergence compared to mock: -24%
  Rice plant height, change: +17%
Striga hermonthica; 100 µM
  Striga emergence, average number: 16 Striga plants per pot
  Change in Striga emergence compared to mock: 38%
  Rice plant height, change: +26%
